≈ marks a conversion by molar mass, not a printed value.
What was measured:
physchem = format: physicochemical; settings: aqueous buffer, kinetic from dmso stock, PBS pH 7.0-7.3, 1% DMSO, 25° C.; for solubility: nephelometry, 90 min
Description: General Experimental: Nephelometry experiments were performed using untreated Corning® Costar® 96-well black polystyrene plates with clear flat bottoms. Sample stock solutions and serial dilutions were prepared with DriSolv® DMSO purchased from MilliporeSigma. All 100-fold dilutions and replicate experiments were prepared using Gibco® Dulbecco's phosphate-buffered saline (DPBS, no calcium, no magnesium) with a pH range of 7.0-7.3 as aqueous media. […] Nephelometry data was obtained using a NEPHELOstar® microplate reader and processed with MARS data analysis software from BMG LabTech.
Procedure for Nephelometry Experiments: Tested compounds were dissolved in 100% DMSO to make stock solutions of specified concentrations, ranging from 10 mM minimum up to 50 mM maximum. The sample then underwent serial dilution in a 96-well plate (Corning® Costar®). Well A1 of the plate contained 100% DMSO. […] Using a 12 channel multichannel pipette, 2.5 μL of sample from row A was transferred to each well in row B through row H of the plate. Next, 30 μL of PBS (pH=7.0-7.3) was added to row B through row H, providing each well with 32.5 μL. The plate was then incubated for 30 sec with shaking. Finally, 217.5 μL of PBS buffer was added to row B through row H, and the entire plate was incubated with shaking at 25° C. for 90 min. Note: The final volume of DMSO in actual experiments with PBS buffer was 1% throughout the plate. After 90 min, the 96-well plate was analyzed with a NEPHELOstar® instrument and the data was processed with MARS data analysis software.

[1] = Simulated Gastric Fluid stability assay; format: in vitro ADME; settings: simulated gastric fluid (SGF) with pepsin, pH 1.2; SGF pH about 1.2 with pepsin, 37° C.; read-out: T½ in SGF (converted)
Description: General Experimental: Simulated Gastric Fluid (SGF) is a pH 1.2 HCl solution with purified pepsin (800-2500 units of activity) (Test Solutions, The United States Pharmacopoeia (USP), 2008). SGF was prepared according to a procedure described in Test Solution—USP and other published articles (Bioorganic Chemistry, 49 (2013), 40-48). Sodium chloride 0.20 g and purified pepsin 0.32 g (Sigma), derived from porcine stomach mucosa with an activity of 800 to 2500 units per mg of protein, were dissolved in 0.70 mL hydrochloric acid and sufficient water to make 100 mL. […] The SGF solution prepared was used for in vitro studies to evaluate the prodrug stability.
At specified time intervals, aliquots (100 μL) were withdrawn and added to pre-cooled 100% acetonitrile (200 μL spiked with ISTD) and mixed well by vortex mixing for 2 min. The mixture was centrifuged at 13000 rpm for 15 min at 4° C.

[2] = Liver microsome stability assay (HLM); format: in vitro ADME; settings: human, microsomes, pH 7.4; 3 μM test compound, NADPH; read-out: T½ in HLM
Description: (§1) General Experimental: Human and mouse liver microsomes were purchased from Xenotech at 20 mg/mL. NADPH (Sigma-Aldrich) 10 mM stocks were prepared in deionized water.
(§2) Procedure for Liver Microsome Stability Assay: Test compounds and positive controls were dissolved in 100% DMSO to make 10 mM stock solutions. Verapamil (Sigma-Aldrich) and diphenhydramine (Sigma-Aldrich) were used as positive controls for both human liver microsomes (HLM) and mouse liver microsomes (MLM). The 10 mM stock solutions of test and control compounds were further diluted in potassium phosphate buffer (100 mM, pH 7.4) to 500 μM to ensure that the organic solvent content was <0.2%. The liver microsome (HLM or MLM) assay was prepared in a 1.5 mL Eppendorf tube with a final volume of 1100 μL for duplicate runs. Each reaction contained phosphate buffer (928.4 μL), liver microsomes (55 μL), and test compound (6.6 μL of 500 μM), resulting in a final concentration of 3 μM for the test compound. The reaction was initiated with 110 μL of 10 mM NADPH. Aliquots (100 μL) were removed in duplicate at 0, 5, 10, 15, and 30 min and quenched in […] of 100% cold methanol which contained internal standard (ISTD: d5-7-ethoxy coumarin 2 μM). The aliquots were centrifuged at 12,000 g for 5 min, and the supernatant was transferred and placed in an LC-MS vial. Each time point was assessed by LC-MS/MS, and the area under the m/z curve (AUC), based on the MRM transition, was integrated w.r.t the ISTD. Positive controls were conducted at a final volume of 550 μL to enable a single run for each time point. Negative controls in the absence of NADPH were performed with the test and control compounds, respectively, at a final volume of 150 μL and measured at the most prolonged time point. Control compounds were processed and analyzed like test compounds. Each time point was run in triplicates on LC-MS/MS followed by in-between blank washes to avoid the carryover and to equilibrate the column. Half-life (T1/2) was calculated using the data obtained from LC-MS/MS and by plotting ln (% remaining of the parent prodrug) versus time and performing linear regression to determine slope. Slope=−k and T1/2=0.693/k for first-order kinetics.

[3] = Liver microsome stability assay (MLM); format: in vitro ADME; settings: mouse, mouse liver microsomes, pH 7.4; 3 μM test compound, NADPH; read-out: T 1/2 in MLM
Description: as §1
as §2, with “Each time point was run in triplicates on LC-MS/MS followed by in-between blank washes to avoid the carryover and to equilibrate the column.” left out, “Slope=−k and T1/2=0.693/k for first-order kinetics.” left out

[4] = Plasma stability (mouse plasma); format: in vitro ADME; settings: read-out: T½ in mouse plasma (converted)
[5] = daily oral doses of 10 mg/kg chronically administered; cited from earlier work
[6] = Plasma stability assay (human plasma); format: in vitro ADME; settings: 37° C.; for half-life: read-out: T½ in human plasma (converted)
Description: General Experimental: Procaine and Procainamide were purchased from Sigma-Aldrich. Human plasma was obtained from BioIVT (Cat. No. […]2N) and 1X Dulbecco's PBS (pH 7.4, Gibco) was obtained from Thermos Fischer. Stock solutions were prepared in 100% DMSO, and suitable dilutions of target analytes were prepared in methanol for method development.
Procedure for Plasma Stability Assay: Test compounds were dissolved in DMSO to make a stock solution of 10 mM and then diluted to 500 μM in buffer (or 70% MeOH). Human plasma was thawed at ambient temperature and is aliquoted ([…]) to a 1.5 mL Eppendorf tube in duplicates (A and B) for each compound. Plasma was incubated at 37° C. for 10 minutes in an incubator shaker at 150 rpm; the reaction was initiated by the addition of the test compound (6.0 μL) and vortex mixing. The total reaction volume was 1000 μL where the final organic solvent concentrations were 0.6% MeOH and 0.03% DMSO. The spiked plasma samples were incubated at 37° C. for 4 hrs. The reactions were terminated at time points 0, 15, 30, 60, 120, 180, and 240 min by taking a 100 μL aliquot from the test incubation mixture and immediately quenching it in ice-cold acetonitrile containing internal standard (150 μL with 2 μM ISTD), followed by a quick vortex mixing. In addition, matrix blank was prepared by adding acetonitrile solutions containing ISTD to plasma samples without any of the analytes or control compounds. Also, an additional tube was made to measure compound degradation in PBS buffer. The samples were centrifuged at 15000 rpm for 25 min at 4° C. The supernatant was transferred to an LC-MS vial for analysis by LC/MS-MS. Each time point was run in duplicates followed by in-between blank washes to avoid the carryover and to equilibrate the column. Half-life (T1/2) was calculated using the data obtained from LC-MS/MS and by plotting ln (% remaining of the parent prodrug) versus time and performing linear regression to determine slope. Slope=−k and T1/2=0.693/k for first-order kinetics.
These positive controls were run in parallel to test the systems for competency.

| SMILES | solubility (physchem) [µM] | half-life [2] [min] | half-life [6] [min] | other results |
| --- | --- | --- | --- | --- |
| C=C(C)[C@@H]1CCC(C)=C[C@H]1c1c(O)cc(CCCCC)cc1O [CBD, Cannabidiol, reference compound] | 16.9 ± 0.55 (≈ 5.32 µg/mL) | 5.8 |  | half-life at 2 mM [1]: > 180 min; half-life at 3 μM [3]: 2.9 min; half-life [4]: 576 min; mean plasma concentration [5]: 5.9 to 11.2 ng/mL |
| C=C(C)[C@@H]1CCC(C)=C[C@H]1c1c(O)cc(CCCCC)cc1OC(=O)C1(OP(=O)(O)OC(C)C)CC1.N [14a, 1-((((1′R,2′R)-6-hydroxy-5′-methyl-4-pentyl-2′-(prop-1-en-2-yl)-1′,2′,3′,4′-tetrahydro-[1,1′-biphenyl]-2-yl)oxy)carbonyl)cyclopropyl isopropyl phosphate ammonium salt] | > 500 | 13 | > 180 |  |
| C=C(C)[C@@H]1CCC(C)=C[C@H]1c1c(O)cc(CCCCC)cc1OC(=O)COP(=O)(O)O.N.N [7a, 2-(((1′R,2′R)-6-hydroxy-5′-methyl-4-pentyl-2′-(prop-1-en-2-yl)-1′,2′,3′,4′-tetrahydro-[1,1′-biphenyl]-2-yl)oxy)-2-oxoethyl phosphate di-ammonium salt] | > 500 | 59 |  | half-life at 2 mM [1]: 315 min; half-life at 3 μM [3]: 6.1 min; half-life ([6]; unit min): 20 min; half-life ([4]; unit min): 4.5 min |
| C=C(C)[C@@H]1CCC(C)=C[C@H]1c1c(O)cc(CCCCC)cc1OC(=O)C1(OP(=O)(O)OCCCCCCCCCC)CC1.N [14g, decyl (1-((((1′R,2′R)-6-hydroxy-5′-methyl-4-pentyl-2′-(prop-1-en-2-yl)-1′,2′,3′,4′-tetrahydro-[1,1′-biphenyl]-2-yl)oxy)carbonyl)cyclopropyl) phosphate ammonium salt] | 75 ± 2.14 | > 30 | > 240 |  |
| C=C(C)[C@@H]1CCC(C)=C[C@H]1c1c(O)cc(CCCCC)cc1OC(=O)NCCOP(=O)(O)O.N.N [38a, (1′R,2′R)-6-hydroxy-5′-methyl-4-pentyl-2′-(prop-1-en-2-yl)-1′,2′,3′,4′-tetrahydro-[1,1′-biphenyl]-2-yl(2-(phosphonooxy)ethyl)carbamate di-ammonium salt] | > 500 | 121 | > 240 |  |
| C=C(C)[C@@H]1CCC(C)=C[C@H]1c1c(O)cc(CCCCC)cc1OC(=O)C1(OP(=O)(O)OCc2ccccc2)CC1.N [compound 8, benzyl (1-((((1′R,2′R)-6-hydroxy-5′-methyl-4-pentyl-2′-(prop-1-en-2-yl)-1′,2′,3′,4′-tetrahydro-[1,1′-biphenyl]-2-yl)oxy)carbonyl)cyclopropyl) phosphate ammonium salt] | 287 ± 13 | 23 | 318 |  |
| C=C(C)[C@@H]1CCC(C)=C[C@H]1c1c(O)cc(CCCCC)cc1OC(=O)C1(OP(=O)(O)OCCCCCC)CC1.N [14d, hexyl (1-((((1′R,2′R)-6-hydroxy-5′-methyl-4-pentyl-2′-(prop-1-en-2-yl)-1′,2′,3′,4′-tetrahydro-[1,1′-biphenyl]-2-yl)oxy)carbonyl)cyclopropyl) phosphate ammonium salt] | 98 ± 1.24 | 32 | > 240 |  |
| C=C(C)[C@@H]1CCC(C)=C[C@H]1c1c(O)cc(CCCCC)cc1OC(=O)C1(OP(=O)(O)OCCOCCOC)CC1.N [14j, 1-((((1′R,2′R)-6-hydroxy-5′-methyl-4-pentyl-2′-(prop-1-en-2-yl)-1′,2′,3′,4′-tetrahydro-[1,1′-biphenyl]-2-yl)oxy)carbonyl)cyclopropyl (2-(2-methoxyethoxy)ethyl) phosphate ammonium salt] | > 500 | 24 | > 240 |  |
| C=C(C)[C@@H]1CCC(C)=C[C@H]1c1c(O)cc(CCCCC)cc1OC(=O)OCCOP(=O)(O)O.N.N [29a, (1′R,2′R)-6-hydroxy-5′-methyl-4-pentyl-2′-(prop-1-en-2-yl)-1′,2′,3′,4′-tetrahydro-[1,1′-biphenyl]-2-yl(2-(phosphonooxy)ethyl) carbonate di-ammonium salt] | > 500 | 42 | 990 |  |
| C=C(C)[C@@H]1CCC(C)=C[C@H]1c1c(O)cc(CCCCC)cc1OC(=O)N(C)CCOP(=O)(O)O.N.N [38b, (1′R,2′R)-6-hydroxy-5′-methyl-4-pentyl-2′-(prop-1-en-2-yl)-1′,2′,3′,4′-tetrahydro-[1,1′-biphenyl]-2-yl methyl(2-(phosphonooxy)ethyl)carbamate di-ammonium salt] |  |  |  | solubility at 90 min (physchem): > 500 µM; half-life at 3 μM [2]: 230 min; half-life at 3 μM ([6]; read-out: T½ in human plasma): > 240 min |

Reference: patent US20250108064A1, “PHOSPHATE PRODRUGS OF CANNABINOIDS” (priority 2021, published 2025)
